The record followed here is US11129835B2, “Methods and compositions for the inhibition of PIN1” (Beth Israel Deaconess Medical Center, Inc., priority 2012, dated 2021).

The target of experiment [1] is T1, Pin1 (Homo sapiens, UniProt Q13526). The experiment in a line: Pin1 fluorescence polarization competition assay with Tamra-probe (secondary). To be noted: for Tamra Secondary Curve Class: Tamra-probe; for Emax: read-out: Tamra Secondary Efficacy.
Protocol: An assay was developed for the identification of inhibitors of Pin1. […] Candidate compounds were screened in a concentration-titration series (e.g., 57 μM to 0.7 nM).
(§1) Pin1 (0.6 μM) was dispensed into black, solid 1536-well plates (32 rows by 48 columns) at 2 μL/well in Pin1 buffer (10 mM HEPES (pH 7.5), 10 mM NaCl, 0.01% Tween20, 1 mM DTT, and 1% glycerol). Next, 23 nL of compound or DMSO was delivered to each well using a pin tool (tip wash sequence: DMSO, IPA, MeOH, 3 s vacuum dry). Two μL of Pin1-1b-HiFluor488 peptide in buffer (10 mM HEPES (pH 7.5), 10 mM NaCl, 0.01% Tween20, 1 mM DTT, and 1% glycerol, 0.02 μM Pin1-1b-HiFluor488) or DMSO was then dispensed to each well using a pin tool (tip wash sequence: DMSO, IPA, MeOH, 3 s vacuum dry), and plates were incubated at room temperature for 10 min (Table 2). Each plate included controls with no candidate inhibitory compound (32 wells), with unlabeled Pin1-1c titration (3.5 mM to 0.020 mM in a 1:2 dilution series including 2 replicates per concentration; 32 wells), and without Pin1 (64 wells).
(§2) The fluorescence polarization signal of each well was measured on a ViewLux® plate reader using a 480/20 nm excitation filter and 540/25 nm S and P emission filters with a 20 second exposure with 2× binning (Table 2). Percent inhibitory activity was determined from corrected fluorescence polarization values.
(§3) Concentration-response curves were fitted to the signals arising from the resulting fluorescence polarization. The concentration-effect curves were then classified based on curve quality (r^2), response magnitude, and degree of measured activity. Compounds were subsequently categorized based on their curve class.
A further secondary assessment was accomplished by replacing the HiFluor-488-labeled probe with Tamra-probe, a red-shifted fluorophore.
For experiment [2], the target named is T1, Pin1. As to the kind of experiment: Pin1 fluorescence polarization competition assay, primary qHTS (HiFluor-488 / Alexa488 probe).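 Note: Pin1 protein with fluorescent peptide probe, compound displacement read by fluorescence polarization, percent inhibition derived from corrected polarization values, concentration-response curves in 1536-well format.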 For orientation: In fluorescence polarisation assays a small probe gives low polarisation when free and higher when bound to something large.
Protocol: (§4) The goal of this assay was to identify small-molecule inhibitors of Pin1 using a fluorescence polarization competition assay (FIG. 1). […] Candidate compounds were screened in a concentration-titration series (e.g., 57 μM to 0.7 nM).
as §1, §2, §3
Curves showing change polarized fluorescence may be categorized into 5 classes. Class 1 includes complete curves, having 2 asymptotes and an r^2 value of ≥0.9, with an efficacy of either >80% (class 1.1) or ≤80% (class 1.2). Class 1 curves may also be classified as noisy curves when efficacy is >80% and r^2<0.9 (class 1.3) or when efficacy is ≤80% and r^2<0.9 (class 1.4). Class 2 includes incomplete curves having 1 asymptote and an r^2 value of either >0.9 (subclass a) or <0.9 (subclass b), with an efficacy of either >80% (class 2.1) or ≤80% (class 2.2). Class 2 curves may also be classified as noisy curves when efficacy is >80% and r^2<0.9 (class 2.3) or when efficacy is ≤80% and r^2<0.9 (class 2.4). Class 3 includes single point activity curves having 1 asymptote and an efficacy >3 SD from the mean activity of the sample field at the highest tested concentration. […] A fifth class captures any curves not otherwise classified (FIG. 4).
Experiment [3] concerns the target T1, Pin1. The experiment in a line: confirmatory Pin1 fluorescence polarization competition assay (Alexa488 reconfirmed).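 For all read-outs here: Pin1 competition with a HiFluor488-labelled peptide probe, read as fluorescence polarization after 10 min at room temperature.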 The following applies: for Alexa488 Reconfirmed Curve Class: confirmatory retest; for Emax: read-out: Alexa488 Reconfirmed Efficacy.
Protocol: as §4, §1, §2, §3
Setting [4] is: Alexa488 Primary Potency, primary qHTS.
The mark [5] stands for this setting: Average HTS Potency, average over Alexa488 primary, Alexa488 reconfirmed and Tamra secondary assays.
Setting [6] is: read-out: Alexa488 Primary Efficacy.

Broadly, the IC50 is the concentration needed to halve the response being measured. A low value points to greater potency in that assay.

T1 sequence (Q13526 whole entry): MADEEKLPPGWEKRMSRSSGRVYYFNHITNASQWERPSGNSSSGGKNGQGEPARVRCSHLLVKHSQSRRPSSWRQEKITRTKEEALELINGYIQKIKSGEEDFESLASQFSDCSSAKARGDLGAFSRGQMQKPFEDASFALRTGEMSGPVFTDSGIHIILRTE

On to `CC(C)COc1ccc(C(=O)N/C(=C\c2cccc([N+](=O)[O-])c2)C(=O)O)cc1` [Compound 37], for which the half-maximal inhibitory concentration (IC50) on Pin1 [1] came to 12 µM; on Pin1 [2] (setting [4]) it was 85 µM; on Pin1 [2] (setting [5]), 37 µM; on Pin1 [3], 15 µM. For the same compound, the “Tamra Secondary Curve Class” value at Pin1 [1] is 2.2 (≤80% (class 2.2)). Moreover, the Emax was determined as 58% at Pin1 [1], 19% at Pin1 [2] (setting [6]), 47% at Pin1 [2] (read-out: Average HTS Efficacy) and 63% at Pin1 [3]. For the same compound, the “Alexa488 Primary Curve Class” value on Pin1 [2] (primary qHTS) was 1.2 (≤80% (class 1.2)). Also, the “Alexa488 Reconfirmed Curve Class” value on Pin1 [3] is given as 2.2 (≤80% (class 2.2)).
With `COc1ccc(NS(=O)(=O)c2ccc3c(c2)[C@H]2C=CC[C@H]2[C@@H](c2ccc(C(=O)O)cc2)N3)cc1` [Compound 40], the 50% inhibitory concentration (IC50) on Pin1 [1] came to 24 µM; on Pin1 [2] (setting [4]), 25 µM; at Pin1 [2] (setting [5]), 20 µM; on Pin1 [3], 10 µM. Besides, on Pin1 [1], the “Tamra Secondary Curve Class” value was 2.2 (≤80% (class 2.2)). In addition, the Emax was 96% on Pin1 [1], 55% on Pin1 [2] (setting [6]), 83% at Pin1 [2] (read-out: Average HTS Efficacy) and 99% on Pin1 [3].
Turning to `O=C(O)c1cc(Cl)c2c(c1)[C@@H]1C=CC[C@@H]1[C@H](c1ccc(S(=O)(=O)N3CCOCC3)cc1)N2` [Compound 41], the half-inhibitory concentration (IC50) was 19 µM on Pin1 [1], 30 µM on Pin1 [2] (setting [4]), 23 µM on Pin1 [2] (setting [5]) and 19 µM at Pin1 [3]. Further, the “Tamra Secondary Curve Class” value on Pin1 [1] is recorded as 2.2 (≤80% (class 2.2)). Moreover, the Emax on Pin1 [1] is 80%; at Pin1 [2] (setting [6]), 88%; at Pin1 [2] (read-out: Average HTS Efficacy), 77%; on Pin1 [3], 62%. The “Alexa488 Primary Curve Class” value on Pin1 [2] (primary qHTS) was 2.2 (≤80% (class 2.2)). Further, the “Alexa488 Reconfirmed Curve Class” value on Pin1 [3] was 2.2 (≤80% (class 2.2)).
With `COC(=O)COc1ccc(C2Nc3c(Cl)ccc(C(=O)O)c3C3C=CCC32)cc1` (stereo not shown) [Compound 42], the IC50 on Pin1 [1] amounted to 24 µM; at Pin1 [2] (setting [4]), 19 µM; on Pin1 [2] (setting [5]), 23 µM; at Pin1 [3], 27 µM. The “Tamra Secondary Curve Class” value at Pin1 [1] is 2.2 (≤80% (class 2.2)). Also, the Emax at Pin1 [1] was 73%; on Pin1 [2] (setting [6]), 73%; at Pin1 [2] (read-out: Average HTS Efficacy) it was 76%; on Pin1 [3] it was 82%. Further, the “Alexa488 Primary Curve Class” value at Pin1 [2] (primary qHTS) is reported as 1.2 (≤80% (class 1.2)). Also, at Pin1 [3], the “Alexa488 Reconfirmed Curve Class” value is recorded as 2.2 (≤80% (class 2.2)).
Consider `O=C(O)c1[nH]c2ccccc2c1C(c1cc(Cl)cc([N+](=O)[O-])c1O)c1c(C(=O)O)[nH]c2ccccc12` [Compound 44], for which the half-inhibitory concentration (IC50) at Pin1 [1] turned out to be 24 µM; on Pin1 [2] (setting [4]), 36 µM; on Pin1 [2] (setting [5]) it was 24 µM; at Pin1 [3], 12 µM. At Pin1 [1], the “Tamra Secondary Curve Class” value is 2.2 (≤80% (class 2.2)). In addition, the Emax on Pin1 [1] is 83%; on Pin1 [2] (setting [6]), 90%; at Pin1 [2] (read-out: Average HTS Efficacy), 79%; at Pin1 [3] it was 63%. Moreover, the “Alexa488 Primary Curve Class” value at Pin1 [2] (primary qHTS) is listed as 2.2 (≤80% (class 2.2)). Further, the “Alexa488 Reconfirmed Curve Class” value on Pin1 [3] is 2.2 (≤80% (class 2.2)).
For the compound `C=CCOc1ccc(C(c2c(C(=O)O)[nH]c3ccccc23)c2c(C(=O)O)[nH]c3ccccc23)cc1` [Compound 46], the IC50 is 21 µM at Pin1 [1], 43 µM at Pin1 [2] (setting [4]), 30 µM on Pin1 [2] (setting [5]) and 27 µM at Pin1 [3]. Besides, the “Tamra Secondary Curve Class” value on Pin1 [1] is listed as 2.2 (≤80% (class 2.2)). Moreover, the Emax on Pin1 [1] was determined as 78%; at Pin1 [2] (setting [6]), 82%; at Pin1 [2] (read-out: Average HTS Efficacy), 81%; on Pin1 [3], 84%. In addition, on Pin1 [2] (primary qHTS), the “Alexa488 Primary Curve Class” value is recorded as 2.2 (≤80% (class 2.2)). Besides, the “Alexa488 Reconfirmed Curve Class” value at Pin1 [3] is 2.2 (≤80% (class 2.2)).
